Experimental data reported in PubChem BioAssay AID330 (DTP/NCI, 2004).
Several values for one entry are separate records, joined by “and”; a condition that tells them apart may be missing. Equal entries are not always repeated. Toxic doses and inconclusive results are not listed. Rule for the calls: active = survival T/C of 150% or more; inactive = T/C below 125% in these data.

Test system: P388 leukemia ip, CD2F1 mice, survival T/C
Test: NCI In Vivo Anticancer Drug Screen. Data for tumor model P388 Leukemia (intraperitoneal) in CD2F1 (CDF1) mice
Conditions: endpoint: median survival time, higher = longer survival
How it was run: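 Mice carrying the transplanted tumor received test compound or vehicle. Survival was recorded in each group, and the value is the treated-group measurement divided by that of the vehicle-treated control group.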

[1] = dose: 50.0 mg/kg/injection, schedule: Q01DX005 (ip), vehicle: saline with Tween-80
[2] = dose: 100.0 mg/kg/injection, schedule: Q01DX005 (ip), vehicle: saline with Tween-80
[3] = dose: 200.0 mg/kg/injection, schedule: Q01DX005 (ip), vehicle: saline with Tween-80
[4] = dose: 50.0 mg/kg/injection, schedule: Q01DX009 (ip), vehicle: saline
[5] = dose: 100.0 mg/kg/injection, schedule: Q01DX009 (ip), vehicle: saline
[6] = dose: 200.0 mg/kg/injection, schedule: Q01DX009 (ip), vehicle: saline
[7] = dose: 60.0 mg/kg/injection, schedule: Q01DX005 (ip), vehicle: saline with Tween-80
[8] = dose: 120.0 mg/kg/injection, schedule: Q01DX005 (ip), vehicle: saline with Tween-80
[9] = dose: 240.0 mg/kg/injection, schedule: Q01DX005 (ip), vehicle: saline with Tween-80

Measured: T/C

Clc1ccc(C(c2ccccc2Cl)C(Cl)Cl)cc1 (centres undefined)
inactive: dose: 8.0 mg/kg/injection, schedule: Q03HX024 (ip), vehicle: saline 105 % of control | dose: 16.0 mg/kg/injection, schedule: Q03HX008 (ip), vehicle: saline 100 % of control | dose: 16.0 mg/kg/injection, schedule: Q03HX016 (ip), vehicle: saline 100 % of control | dose: 16.0 mg/kg/injection, schedule: Q03HX024 (ip), vehicle: saline 100 % of control | dose: 32.0 mg/kg/injection, schedule: Q03HX008 (ip), vehicle: saline 100 % of control | dose: 32.0 mg/kg/injection, schedule: Q03HX016 (ip), vehicle: saline 100 % of control | dose: 32.0 mg/kg/injection, schedule: Q03HX024 (ip), vehicle: saline 100 % of control | dose: 64.0 mg/kg/injection, schedule: Q01DX009 (ip), vehicle: saline 90 % of control | dose: 64.0 mg/kg/injection, schedule: Q03HX008 (ip), vehicle: saline 100 % of control | dose: 64.0 mg/kg/injection, schedule: Q03HX016 (ip), vehicle: saline 115 % of control | dose: 64.0 mg/kg/injection, schedule: Q03HX024 (ip), vehicle: saline 110 % of control | dose: 64.0 mg/kg/injection, schedule: Q04DX003 (ip), vehicle: saline 104 % of control | dose: 128.0 mg/kg/injection, schedule: Q01DX001 (ip), vehicle: saline 109 % of control | dose: 128.0 mg/kg/injection, schedule: Q01DX009 (ip), vehicle: saline 90 % of control | dose: 128.0 mg/kg/injection, schedule: Q03HX008 (ip), vehicle: saline 100 % of control | dose: 128.0 mg/kg/injection, schedule: Q03HX016 (ip), vehicle: saline 110 % of control | dose: 128.0 mg/kg/injection, schedule: Q03HX024 (ip), vehicle: saline 100 % of control | dose: 128.0 mg/kg/injection, schedule: Q04DX003 (ip), vehicle: saline 100 % of control | dose: 128.0 mg/kg/injection, schedule: Q08DX002 (ip), vehicle: saline 100 % of control | dose: 256.0 mg/kg/injection, schedule: Q01DX001 (ip), vehicle: saline 100 % of control | dose: 256.0 mg/kg/injection, schedule: Q01DX001 (oral), vehicle: saline 104 % of control | dose: 256.0 mg/kg/injection, schedule: Q01DX009 (ip), vehicle: saline 95 % of control | dose: 256.0 mg/kg/injection, schedule: Q01DX009 (oral), vehicle: saline 104 % of control | dose: 256.0 mg/kg/injection, schedule: Q04DX003 (ip), vehicle: saline 100 % of control | dose: 256.0 mg/kg/injection, schedule: Q04DX003 (oral), vehicle: saline 100 % of control | dose: 256.0 mg/kg/injection, schedule: Q08DX002 (ip), vehicle: saline 90 % of control | dose: 512.0 mg/kg/injection, schedule: Q01DX001 (ip), vehicle: saline 109 % of control | dose: 512.0 mg/kg/injection, schedule: Q01DX001 (oral), vehicle: saline 100 % of control | dose: 512.0 mg/kg/injection, schedule: Q01DX009 (ip), vehicle: saline 86 % of control | dose: 512.0 mg/kg/injection, schedule: Q01DX009 (oral), vehicle: saline 109 % of control | dose: 512.0 mg/kg/injection, schedule: Q04DX003 (ip), vehicle: saline 90 % of control | dose: 512.0 mg/kg/injection, schedule: Q04DX003 (oral), vehicle: saline 100 % of control | dose: 512.0 mg/kg/injection, schedule: Q08DX002 (ip), vehicle: saline 100 % of control | dose: 1024.0 mg/kg/injection, schedule: Q01DX001 (ip), vehicle: saline 100 % of control | dose: 1024.0 mg/kg/injection, schedule: Q01DX001 (oral), vehicle: saline 100 % of control | dose: 1024.0 mg/kg/injection, schedule: Q01DX009 (oral), vehicle: saline 100 % of control | dose: 1024.0 mg/kg/injection, schedule: Q04DX003 (ip), vehicle: saline 90 % of control | dose: 1024.0 mg/kg/injection, schedule: Q04DX003 (oral), vehicle: saline 100 % of control | dose: 1024.0 mg/kg/injection, schedule: Q08DX002 (ip), vehicle: saline 104 % of control | dose: 2048.0 mg/kg/injection, schedule: Q01DX001 (oral), vehicle: saline 109 % of control | dose: 2048.0 mg/kg/injection, schedule: Q01DX009 (oral), vehicle: saline 100 % of control | dose: 2048.0 mg/kg/injection, schedule: Q04DX003 (oral), vehicle: saline 100 % of control

CNC(=S)N/N=C/CCCC/C=N/NC(=S)NC
inactive: dose: 100.0 mg/kg/injection, schedule: Q01DX001 (ip), vehicle: saline 96 % of control | dose: 200.0 mg/kg/injection, schedule: Q01DX001 (ip), vehicle: saline 96 % of control | dose: 400.0 mg/kg/injection, schedule: Q01DX001 (ip), vehicle: saline 101 % of control

c1ccc(CN=C(Nc2ccc(C3=NCCN3)cc2)c2cccc(C(=NCc3ccccc3)Nc3ccc(C4=NCCN4)cc3)c2)cc1
inactive: [1] 104 % of control | [2] 104 % of control | [3] 104 % of control

COc1ccc(C(=S=O)N(C)c2ccccc2)cc1
inactive: [4] 100 % of control | [5] 100 % of control | [6] 90 % of control

CCOC(=O)Nc1cc2c(cn1)[nH]c1ccccc12
inactive: [7] 105 % of control | [8] 114 % of control | [9] 112 % of control

CCC/C(=N\NC(N)=NC)c1ccc2c(c1)Cc1ccccc1-2
inactive: dose: 50.0 mg/kg/injection, schedule: Q04DX002 (ip), vehicle: saline with Tween-80 106 % of control | dose: 100.0 mg/kg/injection, schedule: Q04DX002 (ip), vehicle: saline with Tween-80 102 % of control | dose: 200.0 mg/kg/injection, schedule: Q04DX002 (ip), vehicle: saline with Tween-80 104 % of control

NC(=S)N/N=C1/C(=O)N(C2CCCCCC2)C(=O)C1C(=O)NC1CCCCCC1 (centres undefined)
inactive: dose: 12.5 mg/kg/injection, schedule: Q01DX005 (ip), vehicle: saline with Tween-80 105 % of control | dose: 25.0 mg/kg/injection, schedule: Q01DX005 (ip), vehicle: saline with Tween-80 99 % of control | [1] 104 % of control and 90 % of control

OCc1cc2ccc3ccccc3c2[nH]1
inactive: [7] 96 % of control | [8] 89 % of control | [9] 91 % of control

C[Si](C)(CCl)N[Si](C)(C)CCl
inactive: dose: 50.0 mg/kg/injection, schedule: Q01DX009 (ip), vehicle: suspension in saline 100 % of control | dose: 100.0 mg/kg/injection, schedule: Q01DX009 (ip), vehicle: saline with Tween-80 100 % of control | dose: 100.0 mg/kg/injection, schedule: Q01DX009 (ip), vehicle: suspension in saline 98 % of control | dose: 200.0 mg/kg/injection, schedule: Q01DX009 (ip), vehicle: saline with Tween-80 96 % of control | dose: 200.0 mg/kg/injection, schedule: Q01DX009 (ip), vehicle: suspension in saline 105 % of control | dose: 400.0 mg/kg/injection, schedule: Q01DX009 (ip), vehicle: saline with Tween-80 122 % of control

OCCc1ccccn1
inactive: [4] 102 % of control | [5] 111 % of control | [6] 102 % of control | dose: 400.0 mg/kg/injection, schedule: Q01DX009 (ip), vehicle: saline 102 % of control

O=C(N/C(=C\c1ccccc1)C(=O)N1CCNCC1)c1ccccc1
inactive: [1] 93 % of control | [2] 89 % of control | [3] 87 % of control

CCSSC(=Nc1ccccc1)OCC(C)C
inactive: dose: 50.0 mg/kg/injection, schedule: Q01DX009 (ip), vehicle: saline + Tween-80 + alcohol 107 % of control | dose: 100.0 mg/kg/injection, schedule: Q01DX009 (ip), vehicle: saline + Tween-80 + alcohol 106 % of control | dose: 200.0 mg/kg/injection, schedule: Q01DX009 (ip), vehicle: saline + Tween-80 + alcohol 123 % of control

CC1(c2cccc[n+]2Cc2ccc(Cl)c3ccccc23)OCCO1
inactive: dose: 12.5 mg/kg/injection, schedule: Q01DX009 (ip), vehicle: saline 101 % of control | dose: 25.0 mg/kg/injection, schedule: Q01DX009 (ip), vehicle: saline 101 % of control

O=C(C=C(C(F)(F)F)C(F)(F)F)c1c2ccccc2cc2ccccc12
inactive: dose: 0.78 mg/kg/injection, schedule: Q01DX009 (ip), vehicle: DMSO 91 % of control | dose: 1.56 mg/kg/injection, schedule: Q01DX009 (ip), vehicle: DMSO 98 % of control | dose: 3.12 mg/kg/injection, schedule: Q01DX009 (ip), vehicle: DMSO 87 % of control and 89 % of control
